Results reported in PMC4941645, “Oxidative Stress Induced by Pt(IV) Pro-drugs Based on the Cisplatin Scaffold and Indole Carboxylic Acids in Axial Position” (Scientific Reports, 2016).

Key:
[1] = Reduction with ascorbic acid followed by HPLC; type: physicochemical; settings: 10 eq. ascorbic acid, 37 °C, pH 7, HPLC; for complex reduced: 3 h incubation
Protocol: (§1) The reduction reaction of two representative complexes (1A and 1P) and the release of the indole carboxylic acid ligands was analyzed by HPLC using ascorbic acid as the reductant and 37 °C, pH 7 as physiological conditions (Fig. 4 and S1). The HPLC chromatograms of the reduction reaction of the complexes were compared with the chromatograms of pure samples of the carboxylic acid ligands. […] After 3 h incubation with 10 eq. of ascorbic acid 75% of 1P and 50% of 1A was reduced. […] We further studied the nature of the Pt(II) species produced upon the reduction of 1P and 1A by ^195Pt NMR. […] Unfortunately, monitoring the reduction reaction of the symetrically (2A and 2P) and unsymmetrically (3A–5A and 3P–5P) substituted dicarboxylato complexes was hampered by the poor solubility of the complexes in water and most organic solvents except DMF and DMSO. For the same reason the reduction potentials could not be determined by cyclic voltammetry. However it has been reported that the reduction rate of cis,cis,trans-[Pt(NH3)2Cl2(RCOO)(OH)] monocarboxylato complexes is faster than that of dicarboxylato complexes and this has been attributed to the fact that hydroxido ligands are much better bridging ligands for electron transfer than carboxylate ligands.
The reduction of the complexes 1A and 1P) with ascorbic acid was followed by HPLC using a Phenomenex Luna C18 ([…], 100 Å, 250 mm × 4.60 mm i.d.) column at a flow rate of 1.0 mL/min with 280 nm UV detection at room temperature. The mobile phase was 80:20 acetonitrile (1% trifluoroacetic acid) : water (1% trifluoroacetic acid). The complexes were dissolved in DMF (0.5 mL) and added to a 5 mM solution of ascorbic acid in 2 mM 4-(2-hydroxyethyl)piperazine-1-ethanesulfonic acid (HEPES) buffer (pH 7) and diluted to a final concentration of 0.5 mM using acetonitrile. The process was followed at 37 °C until complete reduction.

[2] = Reduction with ascorbic acid followed by 195Pt NMR; type: physicochemical; settings: 1 eq. ascorbic acid, 37 °C
Protocol: as §1, with “However it has been reported that the reduction rate of cis,cis,trans-[Pt(NH3)2Cl2(RCOO)(OH)] monocarboxylato complexes is faster than that of dicarboxylato complexes and this has been attributed to the fact that hydroxido ligands are much better bridging ligands for electron transfer than carboxylate ligands.” left out
Compounds 1A and 1P (10 mM) were incubated at 37 °C, respectively, in the presence of 10 mM ascorbic acid in 12 mM HEPES buffer at pH 7. […] The ^195Pt NMR spectra were recorded by inserting a tube with D2O into the NMR tube.

A375 cells [3] = experiment: Mitochondrial membrane potential; type: cell-based, human; settings: A375, IC50 concentrations, 24 and 48 h
Protocol: A persistent increase in the rate of ROS production is responsible for the accumulation of ROS. In turn, an increase in cellular ROS leads to the loss of the mitochondrial membrane potential (ΔΨm, MMP), thus possibly leading to the induction of apoptosis. The effect induced by the Pt(IV) complexes on the MMP was assessed by treating A375 cells with IC50 concentrations of 1P and 1A and evaluating the energization of treated melanoma cells in terms of the retention of the cationic fluorescent probe tetramethyl rhodamine methyl ester (TMRM).
Figure 9 Effects of 1P and 1A on the cellular mitochondrial membrane potential. […] The percentage of cells with a hypopolarized mitochondrial membrane potential was determined fluorimetrically.
The ΔΨm was assayed using the Mito-ID® Membrane Potential Kit according to the manufacturer’s instructions (Enzo Life Sciences, Farmingdale, NY). Briefly, A375 cells (8 × 10^3 per well) were seeded in 96-well plates, after 24 h, cells were washed with PBS and loaded with Mito-ID Detection Reagent for 30 min at 37 °C in the dark. Afterwards, cells were washed with PBS and incubated with increasing concentrations of the tested complexes. The fluorescence was estimated using a plate reader (Fluoroskan Ascent FL, Labsystem, Finland) at 490 (excitation) and 590 nm (emission).

A375 cells [4] = experiment: Hoechst 33258 staining, apoptosis morphology; type: cell-based, human; settings: A375, IC50 doses, 48 h
Protocol: A375 cells were seeded into 8-well tissue-culture slides (BD Falcon, Bedford, MA, USA) at 5 × 10^4 cells/well (0.8 cm^2).

caspase-3 = experiment: Caspase-3 activation; type: cell-based, human; settings: A375, IC50 doses, 48 h
Protocol: Caspase-3 cleavage reached values similar to that exerted by the well-known caspase-dependent apoptosis inducer staurosporine.
Protein aliquots (100 μg) were stained at 37 °C for 60 min with fluorescent caspase-3 substrate N-acetyl-Asp-Glu-Val-Asp-AMC (AMC = 7-amino-4-methylcoumarin) (Sigma Co.). Substrate hydrolysis was measured after 60 min by monitoring the release of AMC using a spectrofluorimeter (excitation at 370 nm, emission at 460 nm).

A375 melanoma cells = experiment: Cellular accumulation of Pt (GF-AAS); type: cell-based, human; settings: for cellular platinum accumulation (in words): A375, 1.5 and 3 μM, 6 and 24 h
[5] = test system: panel of human tumor cell lines (BxPC3, HCT-15, MCF-7, A431, A549, A375); experiment: MTT cytotoxicity, mean over panel of human tumor cell lines; type: cell-based; settings: mean over the six cell lines of Table 1, 72 h
Protocol: The cytotoxic activity of the complexes and of the uncoordinated ligands was evaluated by the MTT test on a panel of human tumor cell lines containing examples of pancreatic (BxPC3), colorectal (HCT-15), breast (MCF-7), cervical (A431), and lung (A549) cancers as well as of melanoma (A375). For comparison purposes, the cytotoxicity of cisplatin was evaluated under the same experimental conditions.
The growth inhibitory effect toward tumor cells was evaluated by means of the MTT assay. Briefly, (3–8) × 10^3 cells/well, dependent upon the growth characteristics of the cell line, were seeded in 96-well microplates in growth medium (100 μL). After 24 h, the medium was removed and replaced with fresh medium containing the compound to be studied at the appropriate concentration. Triplicate cultures were established for each treatment. After 24, 48, or 72 h, each well was treated with 10 μL of a 5 mg/mL MTT saline solution and, after 5 h of incubation, 100 μL of a sodium dodecylsulfate (SDS) solution in 0.01 M HCl was added. After an overnight incubation, cell growth inhibition was detected by measuring the absorbance of each well at 570 nm using a Bio-Rad 680 microplate reader. The mean absorbance for each drug dose was expressed as a percentage of the control, untreated well absorbance and plotted vs drug concentration. The IC50 values, the drug concentrations that decrease the mean absorbance at 570 nm to 50% of that of untreated control wells, were calculated from the dose–response curves with the four-parameter logistic model (4PL). The final value is the mean ± S.D. of at least three independent experiments performed in triplicate.

SMILES	time to complete reduction [1] [h]	complex reduced [1] [%]	time to complete reduction [2] [h]	cells with decreased mitochondrial membrane potential (in words) (A375 cells [3])	apoptotic morphology (in words) (A375 cells [4])	caspase-3 activity, factor over untreated control cells (caspase-3)	cellular platinum accumulation (in words) (A375 melanoma cells)	cellular uptake level, times lower than cisplatin (A375 melanoma cells; A375, GF-AAS)	IC50 [5] [nM]	cellular platinum, times greater than cisplatin (A375 melanoma cells; A375, 3 μM, 24 h, GF-AAS)
[NH2][Pt]([NH2])([OH])([Cl])([Cl])[O]C(=O)Cc1c[nH]c2ccccc12 [Complex 1A]	30	50	30	significant and time-dependent increase	morphological features typical of cells undergoing apoptosis	~5	–	–	–	–
[NH2][Pt]([NH2])([Cl])([Cl])([O]C(=O)CCC(=O)O)[O]C(=O)Cc1c[nH]c2ccccc12 [Complex 4A]	–	–	–	–	–	–	lowest platinum accumulation	about 7	–	–
[NH2][Pt]([NH2])([OH])([Cl])([Cl])[O]C(=O)CCc1c[nH]c2ccccc12 [Complex 1P, cis,cis,trans-[Pt(NH3)2Cl2(IPA)(OH)]]	24	75	24	significant and time-dependent increase	morphological features typical of cells undergoing apoptosis	~5	internalized most efficiently	–	~2500	about 2.3
